Experimental data as given in patent publication US10689378B2, “Triazolopyridine compounds and uses thereof” (Novartis AG, priority 2016, dated 2020).

Columns and labels:
[1] = target: T1, EED (1-441)-His protein (Homo sapiens, UniProt O75530); assay: EED-H3K27Me3 peptide competition binding assay by AlphaScreen; conditions: EED-H3K27Me3 peptide competition, AlphaScreen; read-out: (a) IC50 EED Alphascreen binding Qualified
T1 construct: 30 nM EED (1-441)-His protein
How it was run: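 Serially diluted compound (12 points, 3-fold) incubated 20 min with 30 nM EED(1-441)-His and 15 nM biotin-H3K27Me3(19-33) peptide in 25 mM HEPES pH 8, 0.02% Tween-20, 0.5% BSA. Ni-chelate acceptor/streptavidin donor beads (10 μg/mL each) added, 1 h rt dark; 615 nm emission normalized to controls, dose-response fit for IC50.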

[2] = target: wild type PRC2 (wtPRC2) complex (Homo sapiens, UniProt O75530); assay: EED LC-MS assay (SAH production by PRC2); assay type: biochemical; conditions: PRC2 LC-MS assay; read-out: (b) IC50 EED LC-MS Qualified
How it was run: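 Pentameric PRC2 (EZH2, SUZ12, EED, Rbap48, AEBP), 12 nM final, preincubated 20 min with compound and SAM, then 1.5 μM biotinylated H3K27me0 peptide, 1 μM SAM, pH 8.0, 120 min at rt. SAH quantified by LC-MS/MS with d4-SAH; control-normalized activity fitted for IC50.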

[3] = test system: H3K27 methylation in G401 cell; assay: ELISA (H3K27 methylation) assay in G401 cells; assay type: cell-based, human; conditions: Homo sapiens, G-401, H3K27 methylation ELISA, read-out: (c) IC50 ELISA Qualified
How it was run: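 G401 cells treated 48 h with 3-fold dilutions (8 or 12 points, top 20 μM). Acid-extracted histones probed by ELISA for H3K27me3 or H3K27me2 with ECL readout, normalized to total H3. Percent inhibition versus DMSO fitted to dose-response curve for IC50.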

T1 sequence (O75530 whole entry): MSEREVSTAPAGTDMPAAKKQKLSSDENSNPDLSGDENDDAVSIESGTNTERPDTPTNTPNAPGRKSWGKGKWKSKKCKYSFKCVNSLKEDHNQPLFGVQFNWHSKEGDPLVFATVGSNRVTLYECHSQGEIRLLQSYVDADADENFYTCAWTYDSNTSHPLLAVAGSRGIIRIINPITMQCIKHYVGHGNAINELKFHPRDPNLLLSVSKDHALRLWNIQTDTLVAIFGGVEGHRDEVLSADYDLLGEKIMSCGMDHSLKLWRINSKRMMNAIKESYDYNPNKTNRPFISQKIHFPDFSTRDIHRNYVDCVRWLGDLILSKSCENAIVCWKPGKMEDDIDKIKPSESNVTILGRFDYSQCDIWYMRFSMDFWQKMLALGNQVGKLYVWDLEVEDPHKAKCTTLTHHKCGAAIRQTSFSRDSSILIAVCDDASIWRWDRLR
Sequence of wild type PRC2 (wtPRC2) complex (O75530 whole entry): as above
Sequence of wild type PRC2 (wtPRC2) complex (Q15910 whole entry partner): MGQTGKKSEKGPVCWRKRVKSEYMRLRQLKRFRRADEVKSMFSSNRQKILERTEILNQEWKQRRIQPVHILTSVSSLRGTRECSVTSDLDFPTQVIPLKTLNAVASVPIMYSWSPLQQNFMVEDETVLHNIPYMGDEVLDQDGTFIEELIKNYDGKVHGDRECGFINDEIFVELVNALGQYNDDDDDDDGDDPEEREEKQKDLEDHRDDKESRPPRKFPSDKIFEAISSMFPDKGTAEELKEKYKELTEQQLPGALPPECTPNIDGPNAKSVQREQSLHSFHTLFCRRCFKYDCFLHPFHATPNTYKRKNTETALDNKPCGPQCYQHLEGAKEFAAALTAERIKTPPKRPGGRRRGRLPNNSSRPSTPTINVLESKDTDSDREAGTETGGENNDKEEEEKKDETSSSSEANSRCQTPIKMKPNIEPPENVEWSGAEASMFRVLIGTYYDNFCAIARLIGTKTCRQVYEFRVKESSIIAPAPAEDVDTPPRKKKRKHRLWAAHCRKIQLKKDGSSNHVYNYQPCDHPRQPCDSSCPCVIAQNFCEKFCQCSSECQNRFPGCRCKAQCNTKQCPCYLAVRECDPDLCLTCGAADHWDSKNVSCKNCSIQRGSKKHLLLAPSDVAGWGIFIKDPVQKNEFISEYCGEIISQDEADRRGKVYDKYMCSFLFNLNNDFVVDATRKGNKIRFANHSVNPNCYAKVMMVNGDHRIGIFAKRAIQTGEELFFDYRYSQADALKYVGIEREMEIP
Sequence of wild type PRC2 (wtPRC2) complex (Q15022 whole entry partner): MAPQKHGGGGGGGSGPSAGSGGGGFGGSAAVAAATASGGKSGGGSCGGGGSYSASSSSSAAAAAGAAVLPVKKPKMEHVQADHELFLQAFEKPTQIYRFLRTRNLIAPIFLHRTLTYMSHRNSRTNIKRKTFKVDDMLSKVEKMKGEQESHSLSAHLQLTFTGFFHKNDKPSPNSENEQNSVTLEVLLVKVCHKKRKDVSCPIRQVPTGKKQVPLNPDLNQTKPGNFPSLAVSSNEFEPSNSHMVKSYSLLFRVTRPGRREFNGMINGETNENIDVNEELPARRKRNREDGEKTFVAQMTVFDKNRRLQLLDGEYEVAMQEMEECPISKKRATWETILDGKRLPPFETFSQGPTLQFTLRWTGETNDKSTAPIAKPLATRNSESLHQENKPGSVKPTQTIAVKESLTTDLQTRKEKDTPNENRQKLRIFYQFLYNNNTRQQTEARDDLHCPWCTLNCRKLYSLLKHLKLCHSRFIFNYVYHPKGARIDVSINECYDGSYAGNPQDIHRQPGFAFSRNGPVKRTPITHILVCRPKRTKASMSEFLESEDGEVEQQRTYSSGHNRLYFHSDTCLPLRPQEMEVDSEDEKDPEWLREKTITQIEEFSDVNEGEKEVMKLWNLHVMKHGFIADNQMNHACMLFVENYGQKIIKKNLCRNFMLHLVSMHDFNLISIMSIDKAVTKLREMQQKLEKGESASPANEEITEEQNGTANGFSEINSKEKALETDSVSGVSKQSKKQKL
Sequence of wild type PRC2 (wtPRC2) complex (Q09028 whole entry partner): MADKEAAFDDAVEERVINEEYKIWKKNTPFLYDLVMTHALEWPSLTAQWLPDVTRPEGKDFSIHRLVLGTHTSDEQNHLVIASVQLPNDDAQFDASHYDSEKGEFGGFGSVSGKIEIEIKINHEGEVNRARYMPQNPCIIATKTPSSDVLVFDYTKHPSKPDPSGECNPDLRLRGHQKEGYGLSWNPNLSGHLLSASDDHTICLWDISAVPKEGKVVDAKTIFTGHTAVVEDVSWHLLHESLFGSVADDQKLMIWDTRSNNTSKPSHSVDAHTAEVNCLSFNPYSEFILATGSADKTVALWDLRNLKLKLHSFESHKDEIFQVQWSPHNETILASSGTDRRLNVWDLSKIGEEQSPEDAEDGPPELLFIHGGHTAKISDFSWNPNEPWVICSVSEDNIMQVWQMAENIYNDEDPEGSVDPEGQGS
Sequence of wild type PRC2 (wtPRC2) complex (Q6ZN18 whole entry partner): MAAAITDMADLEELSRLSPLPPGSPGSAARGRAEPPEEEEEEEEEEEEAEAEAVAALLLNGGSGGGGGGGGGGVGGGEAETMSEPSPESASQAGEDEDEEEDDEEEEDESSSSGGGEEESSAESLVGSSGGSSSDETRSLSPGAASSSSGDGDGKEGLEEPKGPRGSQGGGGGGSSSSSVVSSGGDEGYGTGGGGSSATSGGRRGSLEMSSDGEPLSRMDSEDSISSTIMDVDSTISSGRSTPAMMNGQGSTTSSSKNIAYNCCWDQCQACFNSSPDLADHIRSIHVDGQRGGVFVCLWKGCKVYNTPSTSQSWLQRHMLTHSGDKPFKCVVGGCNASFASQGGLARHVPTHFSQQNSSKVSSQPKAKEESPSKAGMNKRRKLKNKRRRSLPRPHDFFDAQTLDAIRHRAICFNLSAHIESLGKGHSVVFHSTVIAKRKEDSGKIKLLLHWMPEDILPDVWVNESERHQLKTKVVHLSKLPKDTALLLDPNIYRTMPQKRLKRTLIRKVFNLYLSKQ

Row | Structure (SMILES) | IC50 [1] [nM] | IC50 [2] [nM] | IC50 [3] [nM]
1 | COc1cccc(F)c1CNc1ccc(-c2ccc(C(=O)N(C)C)cc2)c2nncn12 [Example 206, 4-(5-((2-fluoro-6-methoxybenzyl)amino)-[1,2,4]triazolo[4,3-a]pyridin-8-yl)-N,N-dimethylbenzamide] | 24 | 48 | 24.1
2 | COc1cccc(F)c1CNc1ccc(-c2cncc(O)c2)c2nncn12 [Example 207, 5-(5-((2-fluoro-6-methoxybenzyl)amino)-[1,2,4]triazolo[4,3-a]pyridin-8-yl) pyridin-3-ol] | 24.9 | 467 | 74.8
3 | COc1cccc(F)c1CNc1ccc(-c2cnn(C3CC3)c2)c2nncn12 [Example 210, 8-(1-cyclopropyl-1H-pyrazol-4-yl)-N-(2-fluoro-6-methoxybenzyl)-[1,2,4] triazolo[4,3-a]pyridin-5-amine] | 42.4 | 165 | 61.9
4 | COc1cccc(F)c1CNc1ccc(-c2cnn(C3CCOCC3)c2)c2nncn12 [Example 212, N-(2-fluoro-6-methoxybenzyl)-8-(1-(tetrahydro-2H-pyran-4-yl)-1H-pyrazol-4-yl)-[1,2,4]triazolo[4,3-a] pyridin-5-amine] | 18 | 75.6 | 22.6
5 | CO/N=C(\C)c1ccc(-c2ccc(NCc3c(F)cccc3OC)n3cnnc23)cn1 [Example 214, (E)-1-(5-(5-((2-fluoro-6-methoxybenzyl)amino)-[1,2,4]triazolo[4,3-a]pyridin-8-yl)pyridin-2-yl)ethanone O-methyl oxime] | 55.2 | 965 | 62.7
6 | COc1cccc(F)c1CNc1ccc(-c2ccc(N3CCCC3=O)nc2)c2nncn12 [Example 215, 1-(5-(5-((2-fluoro-6-methoxybenzyl)amino)-[1,2,4]triazolo[4,3-a]pyridin-8-yl)pyridin-2-yl)pyrrolidin-2-one] | 20 | 150 | 55
7 | COc1cccc(F)c1CNc1ccc(-c2cncc(C(C)(C)O)c2)c2nncn12 [Example 216, 2-(5-(5-((2-fluoro-6-methoxybenzyl)amino)-[1,2,4]triazolo[4,3-a]pyridin-8-yl)pyridin-3-yl)propan-2-ol] | 33 | 449 | 25.5
8 | CNC(=O)Cc1cncc(-c2ccc(NCc3c(F)cccc3OC)n3cnnc23)c1 [Example 217, 2-(5-(5-((2-fluoro-6-methoxybenzyl)amino)-[1,2,4]triazolo[4,3-a]pyridin-8-yl)pyridin-3-yl)-N-methyl acetamide] | 34.3 | 946 | 25

Other lines, results leading:

Row | IC50 [1] [nM] | IC50 [2] [nM] | IC50 [3] [nM] | Structure (SMILES)
9 | 53.1 | 160 | 43.7 | COc1cccc(F)c1CNc1ccc(-c2ccc(C(C)O)nc2)c2nncn12 (stereo not drawn) [Example 205, 1-(5-(5-((2-fluoro-6-methoxybenzyl)amino)-[1,2,4]triazolo[4,3-a]pyridin-8-yl)pyridin-2-yl)ethanol]
10 | 20.5 | 20 | 16.5 | COc1cccc(F)c1CNc1ccc(-c2cccnc2Cl)c2nncn12 [Example 213, 8-(2-chloropyridin-3-yl)-N-(2-fluoro-6-methoxybenzyl)-[1,2,4]triazolo[4,3-a]pyridin-5-amine]
11 | 38.3 | 79.5 | 42 | COc1cccc(F)c1CNc1ccc(-c2c(C)ccnc2F)c2nncn12 [Example 218, 8-(2-fluoro-4-methylpyridin-3-yl)-N-(2-fluoro-6-methoxybenzyl)-[1,2,4]triazolo[4,3-a] pyridin-5-amine]
12 | 29.1 | 213 | 26.7 | COc1cccc(F)c1CNc1ccc(-c2cncc(F)c2C)c2nncn12 [Example 219, 8-(5-fluoro-4-methylpyridin-3-yl)-N-(2-fluoro-6-methoxybenzyl)-[1,2,4]triazolo[4,3-a] pyridin-5-amine]
